Some test systems named below: SK-MEL-2 melanoma; UACC-62 melanoma; SK-MEL-5 melanoma; DU-145 prostate; CAKI-1 renal; HOP-92 NSCLC; MDA-MB-231 breast; HOP-62 NSCLC; SF-295 CNS; SN12C renal.
What all share (assay): DTP human tumour cell line panel, 48 h

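Interpolation was linear, between the two tested concentrations surrounding the appropriate level; five concentrations were tested over 48 hours in 96-well plates. TGI: total growth inhibition.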

One may read the TGI as the concentration giving total growth inhibition. A low value points to more potent growth arrest. In the case of `CC1(C)COC(c2cccc(C3=NC(C)(C)CO3)c2Br)=N1`, the total growth inhibition concentration (TGI) in the assay on SK-MEL-2 melanoma, with UACC-62 melanoma, in the assay with SK-MEL-5 melanoma, in the assay with DU-145 prostate, in the assay with CAKI-1 renal and in the assay on HOP-92 NSCLC was more than 100 µM throughout. Besides, the TGI with MDA-MB-231 breast and in the assay with HOP-62 NSCLC was more than 100 µM in each case.
As for `CCN(CC)CCO/N=C1\CC[C@H]2[C@@H]3CC=C4C[C@@H](O)CC[C@]4(C)[C@H]3CC[C@]12C`, the TGI in the assay with SK-MEL-2 melanoma amounted to 48.4 µM; with UACC-62 melanoma, 31.1 µM; in the assay with SK-MEL-5 melanoma it was 25.4 µM; in the assay with DU-145 prostate it was 65.7 µM; in the assay on CAKI-1 renal it was 30 µM; in the assay with MDA-MB-231 breast, 41.2 µM. The TGI with SF-295 CNS is 38.6 µM; in the assay with HOP-62 NSCLC, 35.2 µM; in the assay on SN12C renal, more than 100 µM.
`NC(N)=N/N=C/c1c(-c2ccc([N+](=O)[O-])cc2)nc2sccn12`: the TGI stood at 3.33 µM in the assay on SK-MEL-2 melanoma; 3.22 µM in the assay with UACC-62 melanoma; 7.98 µM with SK-MEL-5 melanoma; 3.21 µM in the assay on DU-145 prostate; 6.93 µM with CAKI-1 renal; 3.52 µM with HOP-92 NSCLC. Further, the TGI in the assay with MDA-MB-231 breast worked out at 3.13 µM; with SF-295 CNS, 2.87 µM; in the assay with SN12C renal, 3.2 µM.
`CC(C)CCC[C@@H](C)[C@H]1CC[C@H]2[C@@H]3CC=C4C[C@@H](OC(=O)c5cccc6c(=O)c7ccccc7[nH]c56)CC[C@]4(C)[C@H]3CC[C@]12C`: the TGI in the assay on SK-MEL-2 melanoma, in the assay on UACC-62 melanoma, in the assay with SK-MEL-5 melanoma, in the assay on HOP-92 NSCLC, with MDA-MB-231 breast and in the assay with SF-295 CNS was more than 75 µM throughout. The TGI with HOP-62 NSCLC and with SN12C renal was more than 75 µM each time.
With `COc1ccc(C(O)c2ccc3c(c2)OCO3)cc1` (stereo unspecified), the TGI in the assay with UACC-62 melanoma, in the assay with DU-145 prostate, with CAKI-1 renal, in the assay with HOP-92 NSCLC, in the assay on MDA-MB-231 breast and in the assay on SF-295 CNS was more than 100 µM each time. For the same compound, the TGI with HOP-62 NSCLC and in the assay on SN12C renal was more than 100 µM each time.
Take `Cc1c2c3cc(O)ccc3nc-2n(C)c2ccccc12`: the total growth inhibition concentration (TGI) came to 3.21 µM with UACC-62 melanoma; 2.29 µM in the assay on SK-MEL-5 melanoma; 14.3 µM in the assay on DU-145 prostate; 5.21 µM in the assay with HOP-92 NSCLC; 13 µM with SF-295 CNS; 7.99 µM in the assay on HOP-62 NSCLC. This compound registered a concentration for total growth inhibition (TGI) with SN12C renal of 4.38 µM.
Turning to `CC(NC(=O)/C(=C/c1ccccc1O)NC(=O)c1ccccc1)C(=O)O` (stereo unspecified), the TGI was more than 100 µM in the assay with UACC-62 melanoma; more than 100 µM in the assay with SK-MEL-5 melanoma; more than 100 µM in the assay on DU-145 prostate; 37.2 µM in the assay on CAKI-1 renal; more than 100 µM in the assay on HOP-92 NSCLC; 60 µM in the assay with MDA-MB-231 breast. In addition, the TGI came out at 38.8 µM in the assay with SF-295 CNS and 48.1 µM in the assay with SN12C renal.
For `CC(=O)NC1C(CO)O[C@@H]2OC(C)(C)O[C@H]12` (stereo partly specified), the TGI in the assay on SK-MEL-2 melanoma, in the assay with UACC-62 melanoma, in the assay with CAKI-1 renal, in the assay on HOP-92 NSCLC, in the assay with MDA-MB-231 breast and in the assay on SF-295 CNS was more than 100 µM in each case. Also, the TGI in the assay with HOP-62 NSCLC and in the assay on SN12C renal was more than 100 µM throughout.
With `O=c1[nH]c(=O)n(C2OC(COP(=O)(O)OP(=O)(O)O)C(O)C2O)cc1F` (stereo unspecified), the TGI in the assay on SK-MEL-2 melanoma is more than 50 µM; in the assay with UACC-62 melanoma it was more than 42.6 µM; with SK-MEL-5 melanoma, more than 50 µM; in the assay on CAKI-1 renal, 34.8 µM; in the assay on HOP-92 NSCLC it was more than 50 µM; in the assay on SF-295 CNS, more than 50 µM. Moreover, the TGI is 29.6 µM with HOP-62 NSCLC and more than 50 µM in the assay with SN12C renal.
`O=C(O)/C=C(/CC(=O)O)C(=O)O`: the concentration for total growth inhibition (TGI) in the assay with SK-MEL-2 melanoma amounted to 41.9 µM; with UACC-62 melanoma, 36.7 µM; with SK-MEL-5 melanoma it was 44.1 µM; in the assay on DU-145 prostate it was 45.7 µM; in the assay with CAKI-1 renal it was 54.1 µM; in the assay on MDA-MB-231 breast it was 48 µM. For the same compound, the TGI was 37.8 µM with SF-295 CNS, 40.1 µM with HOP-62 NSCLC and 40.7 µM in the assay with SN12C renal.
`CCOC(=O)c1ccc(C(=O)C(C(C)=O)C(=O)OC(C)(C)C)n1C` (stereo unspecified): the TGI with SK-MEL-2 melanoma, in the assay on UACC-62 melanoma, in the assay with SK-MEL-5 melanoma, in the assay with DU-145 prostate, in the assay with CAKI-1 renal and in the assay on MDA-MB-231 breast was more than 100 µM each time. Moreover, the TGI in the assay on SF-295 CNS, with HOP-62 NSCLC and in the assay on SN12C renal was more than 100 µM each time.
Regarding `Cc1cc(S(=O)(=O)Nc2nnc3c(C(F)(F)F)cc(Cl)cn23)c(S)cc1Cl`, the TGI in the assay on SK-MEL-2 melanoma, in the assay on UACC-62 melanoma, in the assay with SK-MEL-5 melanoma, in the assay on DU-145 prostate, in the assay on CAKI-1 renal and with HOP-92 NSCLC was more than 100 µM throughout. Also, the TGI in the assay with MDA-MB-231 breast, in the assay on HOP-62 NSCLC and with SN12C renal was more than 100 µM each time.
Take `COc1cc(C2C3=C(CCC3=O)Oc3cc4c(cc32)OCO4)cc(OC)c1OC` (stereo unspecified): the concentration for total growth inhibition (TGI) in the assay with UACC-62 melanoma was more than 100 µM; in the assay with SK-MEL-5 melanoma, 15.2 µM; in the assay with CAKI-1 renal it was 30.3 µM; with HOP-92 NSCLC it was 6.47 µM; in the assay on SF-295 CNS, 0.532 µM; in the assay with HOP-62 NSCLC, 0.742 µM. Also, in the assay with SN12C renal, the total growth inhibition concentration (TGI) is more than 100 µM.
As for `Clc1nc(-[n+]2ccc(-c3ccncc3)cc2)nc(Nc2ccccc2)c1Cl`, the TGI with SK-MEL-2 melanoma, in the assay on UACC-62 melanoma, in the assay on SK-MEL-5 melanoma, in the assay on DU-145 prostate, in the assay with HOP-92 NSCLC and with MDA-MB-231 breast was more than 100 µM in each case. Further, the TGI in the assay on HOP-62 NSCLC and with SN12C renal was more than 100 µM throughout.
As for `COc1cc2cc(C(=O)N3CC(CCl)c4c3cc(N)c3ccccc43)[nH]c2cc1OCCN(C)C` (stereo unspecified), the TGI in the assay with SK-MEL-2 melanoma came to 0.00726 µM; with UACC-62 melanoma, 0.00871 µM; with DU-145 prostate, 0.0246 µM; in the assay on CAKI-1 renal, 0.094 µM; in the assay with HOP-92 NSCLC, 0.01 µM; in the assay on MDA-MB-231 breast, 0.0173 µM. The results for the total growth inhibition concentration (TGI) in the assay with HOP-62 NSCLC and in the assay with SN12C renal were 0.00741 µM and 0.5 µM, respectively.
On to `COP(=O)(OC)C(N)CCSC` (stereo unspecified), for which the TGI in the assay on SK-MEL-2 melanoma, with UACC-62 melanoma, in the assay on SK-MEL-5 melanoma, in the assay on CAKI-1 renal, with HOP-92 NSCLC and in the assay with SF-295 CNS was more than 100 µM throughout. Moreover, the TGI with HOP-62 NSCLC and with SN12C renal was more than 100 µM throughout.

For the origin of these results see PubChem BioAssay (NCI).
